Assay results: paper PMC10390775, “CETP inhibitor evacetrapib enters mouse brain tissue” (Frontiers in Pharmacology, 2023)

Columns and labels:
[1] = ref Krishna et al., 2017; cited from earlier work
[2] = Dalcetrapib brain distribution in rats after i.v. dosing, compared with evacetrapib in mice; assay type: in vivo; details: rats 10 mg/kg BW dalcetrapib i.v. vs mice 40 mg/kg BW evacetrapib, ref Takubo et al., 2014
[3] = set-up: method as in Takubo et al., 2014; details: rats; ref Takubo et al., 2014; cited from earlier work

Row | Dalcetrapib brain concentration relative to evacetrapib concentration ([2]; 0.5 h after injection) | Dalcetrapib brain concentration relative to evacetrapib concentration ([2]; 24 h after injection) [fold] | SMILES | Accumulation in adipose tissues [1] | Crossing of the blood–brain barrier [3]
1 |  |  | COc1cc(F)c(C(C)C)cc1-c1ccc(C(F)(F)F)cc1CN1C(=O)O[C@H](c2cc(C(F)(F)F)cc(C(F)(F)F)c2)[C@@H]1C [anacetrapib] | accumulate in adipose tissues | 
2 | twofold lower | > 20 | CCC(CC)CC1(C(=O)Nc2ccccc2SC(=O)C(C)C)CCCCC1 [dalcetrapib] |  | capacity to cross the blood–brain barrier of rats
